In PubChem BioAssay (NCI) one finds TGI and GI50 data, which are given here for 14 compounds.

Several values for one entry are separate records, joined by “and”; a condition that tells them apart may be missing. Equal entries are not always repeated.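 Method: 48-hour compound exposure of cells in 96-well plates, five concentrations, linear interpolation of endpoints. Here, GI50 denotes the concentration required for 50% inhibition of growth. TGI is the concentration that stops growth completely.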 Where only a bound is given, the exact number is not on record here.

The first assay has as its system MCF7 breast. The assay can be described thus: NCI tumour cell line growth inhibition, 48 h.
`CCOC(=O)C1C(c2ccc3c(c2)OCO3)c2c([nH][nH]c2=O)CC1(C)O` (stereo unspecified): the TGI is more than 100 µM.

Take `NC(N)=NCC[C@H](NC(=O)OCCCCCn1ccc(=O)[nH]c1=O)C(=O)O`: the TGI is more than 100 µM.

`O=C(c1ccccc1)c1ccc2nc(-c3c(Cl)c(Cl)c(Cl)c(Cl)c3C(=O)N/N=C/c3ccc(Cl)cc3)[nH]c2c1` showed a TGI of 71.8 µM.

`CSc1nc2c(c(=O)[nH]1)N=C(c1ccc([N+](=O)[O-])cc1)CC(c1ccccc1)N2` (stereo unspecified) gave a TGI of 57.6 µM.

`COC1/C=C/C(C)C(C(C)C(OC)C(C)CCC(=O)C(C)C(C/C=C/N(C)C=O)OC)OC(=O)C=CC2OC2(C)CC(OC)C(OC)C2=CC(=O)O[C@@H](C(C)C(OC)CC(OC)/C=C/C(C)C(O)C1)[C@H]2O` (stereo partly specified) registered a TGI of more than 0.286 µM.

Take `CC(=O)Nc1ccc(C(O)/C(=N/N)c2nc3ccc(Cl)cc3[nH]c2=O)cc1` (stereo unspecified): the TGI was more than 100 µM.

`CC1CC(C)C(C#N)N(C)c2ccccc21` (stereo unspecified) yielded a TGI of more than 100 µM.

`NC(N)=NCCCC(NC(=O)c1cccc2c(=O)c3ccccc3[nH]c12)C(=O)O` (stereo unspecified) returned a TGI of more than 100 µM.

On to `O=C(NNCC(O)COc1ccccc1)c1ccccc1` (stereo unspecified), for which the TGI is more than 100 µM.

`COC(=O)[C@@H]1CC(C(C[N+](=O)[O-])c2ccc(O[Si](C)(C)C(C)(C)C)cc2)C(=O)N1C(=O)OC(C)(C)C` (stereo partly specified) gave a TGI of more than 100 µM.

Compound `CC(=O)C1C(=O)C(=O)N(c2cccc([N+](=O)[O-])c2)C1=O` (stereo unspecified) came in with a TGI of more than 100 µM.

As for `CCN(CC)CC1CCCCN1CC(=O)N1c2ccccc2C(=O)Nc2cccnc21` (stereo unspecified), the TGI was more than 100 µM.

In turn, `O=C(NC1=C(Cl)C(=O)c2ccccc2C1=O)c1ccc(F)cc1` came in with a TGI of 17.1 µM.

Compound `CCC(CCCN)Nc1cc(OC)cc2c(C)ccnc12` (stereo unspecified) returned a TGI of 29.3 µM.

The next assay has as its system SK-MEL-5 melanoma. Put plainly: NCI tumour cell line growth inhibition, 48 h.
`CCOC(=O)C1C(c2ccc3c(c2)OCO3)c2c([nH][nH]c2=O)CC1(C)O` (stereo unspecified) gave a TGI of more than 100 µM.

In the case of `NC(N)=NCC[C@H](NC(=O)OCCCCCn1ccc(=O)[nH]c1=O)C(=O)O`, the TGI was more than 100 µM.

The compound `O=C(c1ccccc1)c1ccc2nc(-c3c(Cl)c(Cl)c(Cl)c(Cl)c3C(=O)N/N=C/c3ccc(Cl)cc3)[nH]c2c1` had a TGI of 45.7 µM.

`CSc1nc2c(c(=O)[nH]1)N=C(c1ccc([N+](=O)[O-])cc1)CC(c1ccccc1)N2` (stereo unspecified): the TGI was determined as 55.6 µM.

In the case of `COC1/C=C/C(C)C(C(C)C(OC)C(C)CCC(=O)C(C)C(C/C=C/N(C)C=O)OC)OC(=O)C=CC2OC2(C)CC(OC)C(OC)C2=CC(=O)O[C@@H](C(C)C(OC)CC(OC)/C=C/C(C)C(O)C1)[C@H]2O` (stereo partly specified), the TGI was 0.0284 µM.

`CC(=O)Nc1ccc(C(O)/C(=N/N)c2nc3ccc(Cl)cc3[nH]c2=O)cc1` (stereo unspecified) showed a TGI of more than 100 µM.

For `CC1CC(C)C(C#N)N(C)c2ccccc21` (stereo unspecified), the TGI was more than 100 µM.

The compound `NC(N)=NCCCC(NC(=O)c1cccc2c(=O)c3ccccc3[nH]c12)C(=O)O` (stereo unspecified) registered a TGI of more than 100 µM.

The compound `O=C(NNCC(O)COc1ccccc1)c1ccccc1` (stereo unspecified) gave a TGI of more than 100 µM.

On to `COC(=O)[C@@H]1CC(C(C[N+](=O)[O-])c2ccc(O[Si](C)(C)C(C)(C)C)cc2)C(=O)N1C(=O)OC(C)(C)C` (stereo partly specified), for which the GI50 was > 100 µM and 39.9 µM; the TGI is more than 100 µM.

In the case of `CC(=O)C1C(=O)C(=O)N(c2cccc([N+](=O)[O-])c2)C1=O` (stereo unspecified), the TGI was more than 100 µM.

As to `CCN(CC)CC1CCCCN1CC(=O)N1c2ccccc2C(=O)Nc2cccnc21` (stereo unspecified), the TGI was more than 100 µM.

Regarding `CCC(CCCN)Nc1cc(OC)cc2c(C)ccnc12` (stereo unspecified), the TGI came to 31.6 µM.

The test system of the next assay is K-562 leukemia. The assay can be described thus: NCI tumour cell line growth inhibition, 48 h.
In turn, `NC(N)=NCC[C@H](NC(=O)OCCCCCn1ccc(=O)[nH]c1=O)C(=O)O` had a TGI of more than 100 µM.

Turning to `O=C(c1ccccc1)c1ccc2nc(-c3c(Cl)c(Cl)c(Cl)c(Cl)c3C(=O)N/N=C/c3ccc(Cl)cc3)[nH]c2c1`, the TGI was more than 100 µM.

In the case of `CSc1nc2c(c(=O)[nH]1)N=C(c1ccc([N+](=O)[O-])cc1)CC(c1ccccc1)N2` (stereo unspecified), the TGI was more than 100 µM.

As to `CC1CC(C)C(C#N)N(C)c2ccccc21` (stereo unspecified), the TGI is more than 100 µM.

As for `NC(N)=NCCCC(NC(=O)c1cccc2c(=O)c3ccccc3[nH]c12)C(=O)O` (stereo unspecified), the TGI is more than 100 µM.

For `O=C(NNCC(O)COc1ccccc1)c1ccccc1` (stereo unspecified), the TGI was more than 100 µM.

For `COC(=O)[C@@H]1CC(C(C[N+](=O)[O-])c2ccc(O[Si](C)(C)C(C)(C)C)cc2)C(=O)N1C(=O)OC(C)(C)C` (stereo partly specified), the TGI is more than 100 µM.

`CCC(CCCN)Nc1cc(OC)cc2c(C)ccnc12` (stereo unspecified): the TGI came to 39.5 µM.

In the next assay the test system is A549 NSCLC. The assay can be described thus: NCI tumour cell line growth inhibition, 48 h.
As to `CCOC(=O)C1C(c2ccc3c(c2)OCO3)c2c([nH][nH]c2=O)CC1(C)O` (stereo unspecified), the TGI was more than 100 µM.

For `NC(N)=NCC[C@H](NC(=O)OCCCCCn1ccc(=O)[nH]c1=O)C(=O)O`, the TGI was more than 100 µM.

In turn, `O=C(c1ccccc1)c1ccc2nc(-c3c(Cl)c(Cl)c(Cl)c(Cl)c3C(=O)N/N=C/c3ccc(Cl)cc3)[nH]c2c1` displayed a TGI of more than 100 µM.

`CSc1nc2c(c(=O)[nH]1)N=C(c1ccc([N+](=O)[O-])cc1)CC(c1ccccc1)N2` (stereo unspecified) came in with a TGI of more than 100 µM.

The compound `COC1/C=C/C(C)C(C(C)C(OC)C(C)CCC(=O)C(C)C(C/C=C/N(C)C=O)OC)OC(=O)C=CC2OC2(C)CC(OC)C(OC)C2=CC(=O)O[C@@H](C(C)C(OC)CC(OC)/C=C/C(C)C(O)C1)[C@H]2O` (stereo partly specified) had a TGI of 0.0384 µM.

Compound `CC(=O)Nc1ccc(C(O)/C(=N/N)c2nc3ccc(Cl)cc3[nH]c2=O)cc1` (stereo unspecified) displayed a TGI of more than 100 µM.

In the case of `CC1CC(C)C(C#N)N(C)c2ccccc21` (stereo unspecified), the TGI is more than 100 µM.

With `NC(N)=NCCCC(NC(=O)c1cccc2c(=O)c3ccccc3[nH]c12)C(=O)O` (stereo unspecified), the TGI was more than 100 µM.

With `O=C(NNCC(O)COc1ccccc1)c1ccccc1` (stereo unspecified), the TGI was more than 100 µM.

The compound `COC(=O)[C@@H]1CC(C(C[N+](=O)[O-])c2ccc(O[Si](C)(C)C(C)(C)C)cc2)C(=O)N1C(=O)OC(C)(C)C` (stereo partly specified) showed a TGI of more than 100 µM.

Compound `CC(=O)C1C(=O)C(=O)N(c2cccc([N+](=O)[O-])c2)C1=O` (stereo unspecified) yielded a TGI of more than 100 µM.

As to `CCN(CC)CC1CCCCN1CC(=O)N1c2ccccc2C(=O)Nc2cccnc21` (stereo unspecified), the TGI stood at 35.4 µM.

Compound `O=C(NC1=C(Cl)C(=O)c2ccccc2C1=O)c1ccc(F)cc1` displayed a TGI of more than 100 µM.

`CCC(CCCN)Nc1cc(OC)cc2c(C)ccnc12` (stereo unspecified) returned a TGI of 29.2 µM.

Another assay relates to EKVX NSCLC. The assay can be described thus: NCI tumour cell line growth inhibition, 48 h.
Compound `CCOC(=O)C1C(c2ccc3c(c2)OCO3)c2c([nH][nH]c2=O)CC1(C)O` (stereo unspecified) returned a TGI of more than 100 µM.
